Results from patent publication EP0723771A2, “Agent and process for permanent hair waving” (Wella Aktiengesellschaft, priority 1995, dated 1996).

Conditions: lower pH values (pH = 7 or 8); conclusion from Tabelle 1
Method: Zum Vergleich der Wellwirksamkeit wurden an blondierten Haarsträhnen aus mitteleuropäischem Haar Wellstabilitäten ermittelt. Hierzu wurden 16,5 Zentimeter lange, aus etwa 100 Haaren bestehende Haarsträhnen auf Wickler mit einem Innendurchmesser von 3 Millimetern gewickelt und mit einer 87 mmol Reduktionsmittel pro 100 g Lösung enthaltenden, auf den jeweiligen pH-Wert eingestellten, Reduktionsmittellösung bei 50 Grad Celsius 20 Minuten lang behandelt, wobei eine Menge von 1,2 ml Reduktionsmittellösung pro Gramm Haarsträhne verwendet wurde.
Anschließend wurde das Haar mit einer 3-prozentigen wäßrigen Wasserstoffperoxidlösung oxidativ nachbehandelt, getrocknet und sodann 4 Stunden lang in Wasser ausgehängt. Im Anschluß hieran wurde die Wellstabilität bestimmt.
Die Wellstabilitäten wurden hierbei nach der folgenden Formel ermittelt: [formula] I0 = Gesamtlänge der nicht umgeformten, gestreckten Strähne (16,5 Zentimeter) It = Länge der abgewickelten, ausgehängten Strähne nach 240 Minuten I1 = Länge der umgeformten, aufgewickelten Strähne bei einem Wickelinnendurchmesser von 3 mm (I1 = 35 Millimeter)
Als Reduktionsmittel wurden Cysteamin (Formel (I) mit R = H) und N-Mesylcysteamin (Formel (I) mit R = SO2CH3) sowie als Vergleichsstandard eine auf pH = 9 eingestellte Glycerinmonothioglycolat-Lösung (Wellstabilität = 100 %) verwendet. […]

## CS(=O)(=O)NCCS [R = -SO2-CH3, N-2-Mercaptoethylmethansulfonsäureamid]
  Wellwirksamkeit gegenüber Cysteamin: signifikant höhere Wellwirksamkeit
